A short description of data set [1]: Solubility in distilled water. The class given is physicochemical.
In data set [2] the test system is Plasmodium falciparum. Nature of the data set: Antiparasitic activity against chloroquine-resistant Plasmodium falciparum ItG after 48 hrs by SYBR-Green assay. The class given is functional, organism-based.
Data set [3] in a line: Dissociation constant, pKa of the compound. The class given is physicochemical.
Data set [4] deals with Orotidine 5'-phosphate decarboxylase (Methanobacterium thermoautotrophicum) (UniProt O26232). Nature of the data set: Inhibition of Methanobacterium thermoautotrophicum ODCase at 250 uM in less than 30 mins. The settings on record: Methanothermobacter thermautotrophicus.
The target is the same in data set [5]. Briefly: Inhibition of Methanobacterium thermoautotrophicum ODCase at 50 uM after 8 hrs. The settings on record: Methanothermobacter thermautotrophicus. Further details: scale not given: the % may be the effect or the level left.
The target of data set [6] is T1, Orotidine phosphate decarboxylase (Plasmodium falciparum) (UniProt Q8T6J6).
T1 sequence (whole entry): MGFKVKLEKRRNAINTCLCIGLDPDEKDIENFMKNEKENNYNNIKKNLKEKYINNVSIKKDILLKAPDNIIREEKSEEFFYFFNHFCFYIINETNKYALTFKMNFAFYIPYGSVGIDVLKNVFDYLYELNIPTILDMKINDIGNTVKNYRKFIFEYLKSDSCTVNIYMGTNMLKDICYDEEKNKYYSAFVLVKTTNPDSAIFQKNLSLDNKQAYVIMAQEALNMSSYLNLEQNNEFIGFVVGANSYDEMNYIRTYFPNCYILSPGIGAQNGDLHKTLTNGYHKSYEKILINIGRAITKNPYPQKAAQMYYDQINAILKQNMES
Briefly: Inhibition of Plasmodium falciparum ODCase.

Converted amounts (≈) assume the structure as drawn. The source made the active and inactive calls. No cut-off for these calls is given here. Some results are limits rather than exact numbers.

Sequence of Orotidine 5'-phosphate decarboxylase (Methanobacterium thermoautotrophicum) (O26232 whole entry, looked up): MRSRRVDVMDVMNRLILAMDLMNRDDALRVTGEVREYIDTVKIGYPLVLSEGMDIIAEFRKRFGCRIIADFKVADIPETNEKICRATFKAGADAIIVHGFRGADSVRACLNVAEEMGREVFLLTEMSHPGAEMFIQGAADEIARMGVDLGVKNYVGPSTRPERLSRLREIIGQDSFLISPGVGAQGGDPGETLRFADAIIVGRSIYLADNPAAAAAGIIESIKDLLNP

`O=c1cc(I)n([C@@H]2O[C@H](CO)[C@@H](O)[C@H]2O)c(=O)[nH]1`: in data set [1], the solubility was 4320 µg/mL (≈ 11.7 mM). The same compound yielded an IC50 in data set [2] of 4.4 µM. Moreover, the pKa in data set [3] came to 8.42.
Turning to `O=c1cc(I)n([C@@H]2O[C@H](COP(=O)(O)O)[C@@H](O)[C@H]2O)c(=O)[nH]1`, the result in data set [4] and in data set [6] was Active. In addition, the Activity in data set [5] is over 60%.

These data come from ChEMBL document CHEMBL1142863, “A potent, covalent inhibitor of orotidine 5'-monophosphate decarboxylase with antimalarial activity” (J Med Chem, 2007).
